Source: patent US20230042729A1, “PEPTIDE CONSTRUCTS AND COMPOSITIONS” (DIET4LIFE APS, priority 2019, published 2023)
No end group written: not given here.

Experiments:
murine intestinal cells = murine intestinal cells (Mus musculus, UniProt O88319); experiment: Ca2+ flux / calcium response assay (cell signaling activity); assay type: cell-based
Experimental: Ca^2+ Flux Assay/Calcium Response Assay:
Elevation of intracellular calcium level was measured using the fluorescent calcium chelating dye Fluo-4 AM (ThermoFischer Scientific, Denmark). Briefly, cells were grown as a monolayer in 96-well tissue culture plates (Sarstedt, Germany) to near confluence in appropriate growth medium as described in the cell culture section.
All test compounds were dissolved in water, and then diluted in 1×HBSS containing 25 mM HEPES (pH 7.4), 1% BSA and 2% ink. […]

[1] = Stability of peptides in intestine homogenate, remaining activity read in intestinal cells; assay type: in vitro ADME, mice; conditions: for Stability in intestine (activity remaining): octapeptides, % activity left after 30 min incubation in intestine homogenate at 37° C.
Experimental: Small intestines from 20 Swiss-Webster males were homogenized in 350 ml Dulbecco's phosphate-buffered saline (PBS) (pH 7.4) (ThermoFischer Scientific, Denmark) with a IKA® basic 18 Ultra-Turrax tissue homogenizer set a speed 5 followed by filtration using 100 μm nylon mesh filter. Protein concentration was 6 mg/ml using the bicinconinic acid assay (ThermoFischer Scientific, Denmark) and bovine serum albumin as standard. The intestine homogenate was diluted 10 times in HBSS containing 25 mM HEPES (pH 7.4), and further diluted 30×, 90×, 270×, 810× or 2430× before incubation with peptides. All solutions were prewarmed to 37° C. before mixing with peptide solutions.
Peptides were incubated at 10^−5 M with dilutions of small intestine homogenate at 37° C. for 90 minutes with shaking. Reactions were stopped by addition of 1 M phosphoric acid (final 0.4 M, pH˜1.2). Each peptide incubation mix was then neutralized with NaOH to pH 7.2-7.4 and immediately tested for activity in intestinal cells. Control for zero degradation, i.e. addition of 1 M phosphoric acid prior to addition of intestine homogenate, was included for each peptide. […]
(§1) The 20 hexapeptides with systematic N-terminal substitutions (X-KPYIL) (Schafer-N, Denmark) and NT (8-13) was incubated at 10^−6 M in either FBS for 10 minutes or with 270× diluted intestinal homogenate for 30 minutes at 37° C. with shaking. The degradation was stopped with 1 M phosphoric acid. Peptide solutions were neutralized with NaOH (pH 7.2-7.4), diluted and immediately tested for bioactivity using murine intestinal cells. Determination of EC50 for stimulation of cells allowed calculation of recovered peptide.

[2] = Stability of peptides in serum, remaining activity read in intestinal cells; assay type: in vitro ADME, Bovine; conditions: for Stability in serum (activity remaining): octapeptides, fraction of peptide activity left after 10 min of incubation in serum at 37° C. compared with undigested sample
Experimental: All peptides were incubated at 10^−5 M with Fetal Bovine Serum (FBS; final concentration of 66.7%) (Sigma Aldrich, Denmark) at 37° C. for 3 hours. The peptide degradation was terminated using 1 M phosphoric acid (final 0.4 M, pH˜1.2) and neutralized to pH 7.2-7.4 with NaOH before testing activity in intestinal cells. As for small intestine homogenates, a zero degradation control was included for each peptide.
DC7-2, NT, DKPYIL and NT-(8-13) (final concentration of 10^−6 M) were incubated either with FBS or with 270× diluted intestinal homogenate at 37° C. for various time points with shaking. Degradation was stopped with 1 M phosphoric acid and the samples were subsequently neutralized and immediately tested with intestinal cells as described above. Control for zero degradation was included for each peptide as above.
as §1

Sequence of murine intestinal cells (O88319 whole entry): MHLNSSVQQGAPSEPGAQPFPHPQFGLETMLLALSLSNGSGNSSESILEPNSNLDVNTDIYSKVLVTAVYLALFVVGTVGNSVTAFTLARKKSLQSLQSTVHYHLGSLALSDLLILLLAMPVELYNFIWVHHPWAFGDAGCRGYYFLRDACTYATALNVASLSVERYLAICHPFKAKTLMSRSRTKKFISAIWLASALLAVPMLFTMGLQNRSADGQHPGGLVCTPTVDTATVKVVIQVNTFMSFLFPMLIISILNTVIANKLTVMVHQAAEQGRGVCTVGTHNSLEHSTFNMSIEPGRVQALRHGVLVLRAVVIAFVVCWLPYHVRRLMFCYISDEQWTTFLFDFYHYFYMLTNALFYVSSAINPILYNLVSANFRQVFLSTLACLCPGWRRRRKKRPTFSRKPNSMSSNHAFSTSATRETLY

| Compound | EC50 (murine intestinal cells) [nM] | other results |
| --- | --- | --- |
| CC[C@H](C)[C@H](NC(=O)[C@H](Cc1ccc(O)cc1)NC(=O)[C@@H]1CCCN1C(=O)[C@@H](N)CCCNC(=N)N)C(=O)N[C@@H](CC(C)C)C(=O)O [Peptide 36010, R PYIL] | 1.18 | – |
| ADKPYIL [Peptide 36016, A DKPYIL] | 3.52 | – |
| APYIL [Peptide 35996, A PYIL] | 11.8 | – |
| CDKPYIL [Peptide 36017, C DKPYIL] | 7.72 | – |
| CPYIL [Peptide 35997, C PYIL] | 69.9 | – |
| CSDKPYIL [Peptide 36037, C SDKPYIL] | 5.44 | Stability in intestine (activity remaining) [1]: 14.0%; Stability in serum (activity remaining) [2]: 0.0963 |
| DDKPYIL [Peptide 36018, D DKPYIL] | 10.5 | – |
| DKPYIL [Peptide 35978, D KPYIL] | – | stability in intestine homogenate compared to neurotensin (8-13) RRPYIL [1]: 100-1000 ×; stability in serum compared to neurotensin (8-13) RRPYIL [2]: around 100 times |
| DPYIL [Peptide 35998, D PYIL] | 158 | – |
| DSDKPYIL [Peptide 36038, D SDKPYIL] | 6.15 | Stability in intestine (activity remaining) [1]: 29.9%; Stability in serum (activity remaining) [2]: 0.0947 |
| EDKPYIL [Peptide 36019, E DKPYIL] | 3.96 | – |
| EPYIL [Peptide 35999, E PYIL] | 102 | – |
| ESDKPYIL [Peptide 36039, E SDKPYIL] | 4.82 | Stability in intestine (activity remaining) [1]: 23.0%; Stability in serum (activity remaining) [2]: 0.0964 |
| FDKPYIL [Peptide 36020, F DKPYIL] | 9.52 | – |
| FPYIL [Peptide 36000, F PYIL] | 19.5 | – |
| FSDKPYIL [Peptide 36040, F SDKPYIL] | 3.85 | Stability in intestine (activity remaining) [1]: 3.4%; Stability in serum (activity remaining) [2]: 0.0944 |
| GDKPYIL [Peptide 36021, G DKPYIL] | 2.91 | – |
| GPYIL [Peptide 36001, G PYIL] | 17.4 | – |

| Compound | EC50 (murine intestinal cells) [nM] | other results |
| --- | --- | --- |
| GSDKPYIL [Peptide 36041, G SDKPYIL] | 4.07 | Stability in intestine (activity remaining) [1]: 10.3%; Stability in serum (activity remaining) [2]: 0.0912 |
| HDKPYIL [Peptide 36022, H DKPYIL] | 2.65 | – |
| HPYIL [Peptide 36002, H PYIL] | 35.6 | – |
| HSDKPYIL [Peptide 36042, H SDKPYIL] | 3.63 | Stability in intestine (activity remaining) [1]: 6.4%; Stability in serum (activity remaining) [2]: 0.0980 |
| IDKPYIL [Peptide 36023, I DKPYIL] | 4.77 | – |
| IKPYIL [Peptide 35983, I KPYIL] | 0.24 | – |
| IPYIL [Peptide 36003, 1 PYIL] | 23.8 | – |
| ISDKPYIL [Peptide 36043, I SDKPYIL] | 6.87 | Stability in intestine (activity remaining) [1]: 6.0%; Stability in serum (activity remaining) [2]: 0.0956 |
| KDKPYIL [Peptide 36024, K DKPYIL] | 11.2 | – |
| KPYIL [Peptide 36004, K PYIL] | 7.71 | – |
| KSDKPYIL [Peptide 36044, K SDKPYIL] | 10.7 | Stability in intestine (activity remaining) [1]: 6.6%; Stability in serum (activity remaining) [2]: 0.0527 |
| LDKPYIL [Peptide 36025, L DKPYIL] | 6.41 | – |
| LKPYIL [Peptide 35985, L KPYIL] | 0.33 | – |
| LPYIL [Peptide 36005, L PYIL] | 41 | – |
| LSDKPYIL [Peptide 36045, L SDKPYIL] | 8.06 | Stability in intestine (activity remaining) [1]: 7.9%; Stability in serum (activity remaining) [2]: 0.0917 |
| MDKPYIL [Peptide 36026, M DKPYIL] | 6.08 | – |
| MKPYIL [Peptide 35986, M KPYIL] | 0.388 | – |
